Data reported in paper PMC6267684, “Pharmacokinetic evaluation of the PNC disassembler metarrestin in wild-type and Pdx1-Cre;LSL-Kras^G12D/+;Tp53^R172H/+ (KPC) mice, a genetically engineered model of pancreatic cancer” (Cancer Chemotherapy and Pharmacology, 2018).

Key:
[1] = system: FOXO6 mRNA; experiment: FOXO6 mRNA expression in KPC tumors (RNA-seq, qRT-PCR); assay type: in vivo, KPC mice; settings: vs intratumor exposure
Procedure: Pancreas cancer tissues samples or adjacent, uninvolved normal pancreas from vehicle or metarrestin-treated KPC animals collected at 0, 3, and 9 h after last dose of 25 mg/kg metarrestin were homogenized in PureLink Lysis Buffer (PureLink RNA Mini Kit, ThermoFisher Scientific Waltham, MA) at 4 °C using a TissueLyser II bead mill (Qiagen, Valencia, CA, manufactured by Retsch, Newtown, PA). Total RNA was isolated using the Life Technologies PureLink® RNA Mini Kit, quantified on a NanoDrop 1000 spectrophotometer (ThermoFisher Scientific, Waltham, MA). […]
Total RNA libraries were prepared using the Illumina TruSeq® Stranded Total RNA LT (with Ribo-Zero™Human/Mouse/Rat) kit according the manufacturer’s instructions. […] Sequencing output ranged from 89 to 132 million reads per sample. Adapter trimming and base filtering was done using Trimmomatic software version 0.3, and the trimmed reads were aligned to mouse reference genome (GRCm38/mm10) and Ensembl annotation (version 70) using TopHat2 version 2.0.8.
A total of 450 ng of total RNA was used for single-strand complementary DNA synthesis using a SuperScript III First-Strand kit (Invitrogen, Carlsbad, CA). […] Reaction products were read in a Bio-Rad CFX96 Touch real-time PCR detection system (Bio-Rad Laboratories, Hercules, CA). […]

[2] = system: PNC in PC3M cells; experiment: PNC disassembly assay in PC3M cells; assay type: cell-based; settings: PC3M (PTB-GFP) cells
Procedure: The PNC disassembly assay has been previously described. […] Cells were fixed with […] for 10 min at room temperature. […] Confocal images were obtained using Opera Phoenix (PerkinElmer, Waltham, MA) and a 20× objective lens.
To examine whether measured intratumor metarrestin concentrations measured in PK studies track with intracellular metarrestin concentration, we first decided to synthesize a fluorophore conjugated analog of metarrestin. Structure activity relationship studies around the structure of metarrestin were conducted in a high throughput assay that measured in dose dependence the ability of compounds to reducing PNC prevalence in PC3M cells. […] This analog was chemically conjugated to the fluorophore boron-dipyrromethene (BODIPY®) to track the disassembly of the PNC in PC3M cancer cells by confocal microscopy (Suppl. Figure 2). […] Next, to examine cellular metarrestin levels in relation to extracellular concentrations, we exposed KPC and PC3M cells at 1 and 10 µM concentrations of metarrestin and harvested cells at different timepoints.

[3] = system: PNC in murine KPC tumors; experiment: PNC prevalence in KPC tumors (immunofluorescence with α-PTB1 antibodies); assay type: in vivo, KPC mice; settings: after 14-day treatment with 25 mg/kg by oral gavage; untreated 38.2%
Procedure: Blood samples were collected in K2EDTA tubes and plasma was harvested after centrifugation at 3000 rpm for 10 min. Tissue samples were weighed and flash-frozen for PK and PD mRNA expression analyses, embedded into OCT blocks for PNC determination and processed into FFPE blocks for histopathology assessment. All PK samples were stored at − 80 °C until analysis.
To establish a dose–response relationship between intratumor exposure levels of metarrestin and mechanism of action of the drug in vivo, we first confirmed the ability of metarrestin to suppress PNC structures in murine pancreatic KPC tumors. The prevalence of PNC bodies (expressed as the fraction of cells containing one or more PNCs) was 38.2% in untreated murine KPC tumors (Fig. 4a) which was similar to the PNC prevalence in the previously examined NOD/IL2 gamma (null) PANC1 metastasis model (35.1%) and higher than in cancer cell lines derived from primary pancreatic tumors (average ~ 23.5%). […]
Fig. 4 Intratumor metarrestin exposure correlates with PNC prevalence and mRNA expression levels of transcriptional regulators FOXA1 and FOXO6. a Metarrestin disassembles the peri-nucleolar compartment (PNC) in KPC tumors. […] Relative expression levels of FOXA1 and FOXO6 determined by qRT-PCR and normalized to reference genes. […]

Which “FOXO6 mRNA expression in KPC tumors” value [1] does the source give for `N=c1c2c(-c3ccccc3)c(-c3ccccc3)n(Cc3ccccc3)c2ncn1[C@H]1CC[C@H](O)CC1` [metarrestin, Trans-4-(7-benzyl-4-imino-5,6-diphenyl-4,7-dihydro-3H-pyrrolo[2,3-d]pyrimidin-3-yl) cyclohexanol] here?
The value was “Dose-dependent normalization”.

And the IC50 ([2]; Homo sapiens, PC-3M)?
Its IC50 is 400 nM.

And the IC50 [2]?
The IC50 was 397 nM.

And the “PNC prevalence in KPC tumors” value [3]?
Its value is 9.8%.
